Laboratory results taken from paper PMC4723341, “Ribonuclease H/DNA Polymerase HIV-1 Reverse Transcriptase Dual Inhibitor: Mechanistic Studies on the Allosteric Mode of Action of Isatin-Based Compound RMNC6” (PLoS ONE, 2016).

Experiments:
[1] = target: T1, p66/p51 HIV-1 RT (Human immunodeficiency virus type 1 group M subtype B, UniProt P04585); assay: Thermal stability by differential scanning fluorimetry; format: binding; settings: increasing concentrations of inhibitor
T1 construct: The 1:1 ration between the p66/p51 subunits was also verified; made in house; host or cells: E. coli M15
Protocol: Thermal stability assays were performed according to Nettleship et al.. […] The mixture was heated from 30 to 90°C in increments of 0.2°C. Fluorescence intensity was measured using excitation and emission wavelengths of 483 and 568 nm, respectively. Changes in protein thermal stability (ΔTm) upon inhibitor binding were analyzed by using the LightCycler 480 software. All assays were performed in triplicate.

[2] = target: HIV-1 RT-associated RDDP activity, HIV-1 group O RT (Human immunodeficiency virus type 1 group O, UniProt Q79666); assay: RDDP activity assay, HIV-1 group O RT; format: biochemical; settings: read-out: IC50 RDDP
Text: Recombinant HIV-1 group O RT was expressed and purified as previously described. It was obtained as a heterodimer composed of subunits of 66 and 51 kDa, with a polyhistidine tag at the C-terminus of p66. For this purpose, the RT p66 subunit encoded within a p66RTB expression vector was co-expressed with the HIV-1 protease in E. coli XL-1 Blue, and the obtained heterodimers were then purified by ionic exchange followed by chromatography on Ni2+-nitriloacetic acid agarose. The enzyme was quantified by active site titration before biochemical studies.
RNA-dependent DNA polymerase (RDDP) activity was measured as described in 25 μL volume containing 60 mM Tris-HCl buffer pH 8.1, 8 mM MgCl2, 60 mM KCl, 13 mM DTT, 2.5 μM poly(A)-oligo(dT), 100 μM dTTP, increasing concentrations of inhibitors, whose dilution were made in water, and different amounts of enzymes according to a linear range of dose-response curve: 6 ng wt RT; 30 ng K103N RT; 12 ng V106ART; 19 ng V108A RT; 1.51.5 ng Y181C RT; 45 ng Y188A RT; 15 ng Y188L RT; 30 ng E224A RT; 15 ng P225A RT; 18 ng P226A RT; 23 ng F227A RT; 15 ng L228A RT; 30 ng W229A RT; 30 ng M230A RT; 15 ng G231A RT; 15 ng N474A RT; 15 ng Y501A RT; 15 ng A502F RT; 19 ng A508V RT; 38 ng HIV-1 group O RT. After enzyme addition, the reaction mixture was incubated for 30 min at 37°C and the stopped by addition of EDTA. […]

| SMILES | Tm decrease of HIV-1 RT [1] | IC50 [2] [nM] |
| --- | --- | --- |
| Cc1sc2nc(-c3ccc(O)c(O)c3)[nH]c(=O)c2c1C [VU, 2-(3,4-dihydroxyphenyl)-5,6-dimethylthieno[2,3-d]pyrimidin-4(3H)-one] | 0.5−5.5 °C | – |
| O=C1Nc2ccc(Cl)cc2[C@@](C#CC2CC2)(C(F)(F)F)O1 [EFV, Efavirenz, reference compound] | – | 212 ± 46 |
